Measured values: US12226386B2, “Compositions and methods for treating biofilms” (The Regents of the University of California, priority 2018, dated 2025)

Legend:
Format in all cases: cell-based, Candida albicans
C. albicans biofilms [1] = test: in vitro biofilm disruption assay, fungal; conditions: 1% amino acid, p<0.001
Method: (§1) Two types of biofilm assays were performed: a sustained inhibition assay and a disruption assay.
(§2) For fungal biofilm assays, all solutions were prepared in RPMI 1640 medium. All bacterial biofilm solutions were prepared in Tryptic Soy Broth (TSB), supplemented with 1% glucose (henceforth referred to as TSB-G). All subsequent procedures were performed in a manner that maintained sterility. A solution of each amino acid to be tested was prepared in weight to volume concentrations ranging from 0.1-5.0%. Amino acids were also tested in combinations. Compound solutions were homogenized with gentle agitation in the dark (4° C., 24 hours) before use.
(§3) Fungal strains were streaked on Yeast Peptone Dextrose (YPD) agar plates and incubated at 30° C. for 48 hours. A single colony from each strain to be tested was inoculated into YPD broth and grown for 12 hours, at 30° C., shaking at 225 rpm. For the fungal biofilm inhibition assay, 1 μl of saturated overnight cell culture was added to either 80 μL of RPMI-1640 or RPMI-1640 supplemented with the amino acid compound solution to be tested, in a 384-well plate. […] Media was carefully aspirated and the biofilm was measured by optical density at 600 nm. Twelve replicates were performed for each tested condition and the reported values are normalized to the control (RPMI-1640 media only). For the fungal biofilm disruption assays, 80 μL of RPMI-1640 was added to the plate, along with 1 μL of overnight cell culture. […] Loosely bound cells were washed once with PBS and 80 μL of RPMI-1640 was added to the plate. […] Media was carefully aspirated from the mature biofilm and 80 μL of RPMI-1640, or RPMI-1640 supplemented with the amino acid compound solution to be tested, was gently added to the plate. […] Media was carefully aspirated and the biofilm was measured by optical density at 600 nm. Twelve replicates were performed for each tested condition and the reported values are normalized to the control (RPMI-1640 media only).
The cells were allowed to adhere to the plate for 90 minutes at 37° C. with shaking (350 rpm). […] The plate was further incubated for 24 hours at 37° C. with shaking (350 rpm). […] The plate was further incubated for 24 hours at 37° C. with shaking (350 rpm). Media was carefully aspirated and the biofilm was measured by optical density at 600 nm.

[2] = test system: fungal biofilms (C. albicans); test: biofilm assays (sustained inhibition and/or disruption), fungal; conditions: Tables 4 and 5
Method: Other amino acids in the blood of animals could combat bacterial and fungal biofilm and therefore may be useful in treating these bacterial and fungal infections that would lie on the external surfaces of infected animals such as humans and could also be used to combat these pathogens on instruments and surfaces that need to be treated. Two types of biofilm assays were performed: a sustained inhibition assay and a disruption assay. The sustained inhibition assay assessed the compound's ability to prevent biofilm development throughout all stages of biofilm formation, while the disruption assay assessed the compound's ability to break up an existing mature biofilm. For fungal biofilm assays, all solutions were prepared in RPMI 1640 medium. All bacterial biofilm solutions were prepared in Tryptic Soy Broth (TSB), supplemented with 1% glucose (henceforth referred to as TSB-G). All subsequent procedures were performed in a manner that maintained sterility. […] Amino acids were also tested in combinations. Compound solutions were homogenized with gentle agitation in the dark (4° C., 24 hours) before use. Fungal strains were streaked on Yeast Peptone Dextrose (YPD) agar plates and incubated at 30° C. for 48 hours. A single colony from each strain to be tested was inoculated into YPD broth and grown for 12 hours, at 30° C., shaking at 225 rpm. For the fungal biofilm inhibition assay, 1 μl of saturated overnight cell culture was added to either 80 μL of RPMI-1640 or RPMI-1640 supplemented with the amino acid compound solution to be tested, in a 384-well plate. The cells were allowed to adhere to the plate for 90 minutes at 37° C. shaking at 350 rpm. Loosely bound cells were washed once with phosphate buffered saline (PBS) and 80 μl of RPMI-1640, or RPMI-1640 supplemented with the amino acid compound solution was added to the plate. The plate was further incubated for 24 hours at 37° C. shaking at 350 rpm. Media was carefully aspirated and the biofilm was measured by optical density at 600 nm. Twelve replicates were performed for each tested condition and the reported values are normalized to the control (RPMI-1640 media only). For the fungal biofilm disruption assays, 80 μL of RPMI-1640 was added to the plate, along with 1 μL of overnight cell culture. The cells were allowed to adhere to the plate for 90 minutes at 37° C. shaking at 350 rpm. Loosely bound cells were washed once with PBS and 80 μL of RPMI-1640 was added to the plate. The plate was further incubated for 24 hours at 37° C. shaking at 350 rpm. Media was carefully aspirated from the mature biofilm and 80 μL of RPMI-1640, or RPMI-1640 supplemented with the amino acid compound solution to be tested, was gently added to the plate. The plate was further incubated for 24 hours at 37° C. shaking at 350 rpm. Media was carefully aspirated and the biofilm was measured by optical density at 600 nm. Twelve replicates were performed for each tested condition and the reported values are normalized to the control (RPMI-1640 media only).

C. albicans biofilms [3] = test: in vitro sustained inhibition biofilm assay, fungal; conditions: 1% amino acid, p<0.001
Method: as §1, §2, §3
The plate was further incubated for 24 hours at 37° C. with shaking (350 rpm). Media was carefully aspirated and the biofilm was measured by optical density at 600 nm.

| Structure (SMILES) | Reduce F Biofilm (C. albicans biofilms [1]) | effect on C. albicans biofilms in inhibition and disruption assays [2] | Reduce F Biofilm (C. albicans biofilms [3]) |
| --- | --- | --- | --- |
| N[C@@H](CS)C(=O)O [Cysteine, L-cysteine] | ●● (two dots [i.e. ●●] signifies major effect (greater than about 30% change)) | both inhibited and disrupted | ●● (two dots [i.e. ●●] signifies major effect (greater than about 30% change)) |
| N[C@@H](CC(=O)O)C(=O)O [Aspartic Acid, L-aspartic acid] | ●● (two dots [i.e. ●●] signifies major effect (greater than about 30% change)) | both inhibited and disrupted | ●● (two dots [i.e. ●●] signifies major effect (greater than about 30% change)) |
| N[C@@H](CCC(=O)O)C(=O)O [Glutamic Acid, L-glutamic acid] | ●● (two dots [i.e. ●●] signifies major effect (greater than about 30% change)) | both inhibited and disrupted | ●● (two dots [i.e. ●●] signifies major effect (greater than about 30% change)) |
